Laboratory results as given in ChEMBL document CHEMBL1148247, “Synthesis and histone deacetylase inhibitory activity of cyclic tetrapeptides containing a retrohydroxamate as zinc ligand” (Bioorg Med Chem Lett, 2004).
Where a SMILES comes first, the peptide text is derived from it. [ ]: non-standard residue; d: D form. The star is where a group is joined. Asu = N[C@@H](CCCCCC(=O)O)C(=O)O; aIle = CC[C@@H](C)[C@H](N)C(=O)O; NHOH = ON*

Experiments:
Histone deacetylase = test: Inhibitory activity against histone deacetylases (HDAC) prepared from mouse melanoma B16/BL6 cells; assay type: cell-based
Mus musculus = species on record: Mus musculus; test: Effective concentration in histone deacetylases (HDAC) using p21 promoter assay
Histone deacetylase 1 [1] = target: T1, Histone deacetylase 1 (Mus musculus, UniProt O09106)
T1 sequence (O09106 whole entry): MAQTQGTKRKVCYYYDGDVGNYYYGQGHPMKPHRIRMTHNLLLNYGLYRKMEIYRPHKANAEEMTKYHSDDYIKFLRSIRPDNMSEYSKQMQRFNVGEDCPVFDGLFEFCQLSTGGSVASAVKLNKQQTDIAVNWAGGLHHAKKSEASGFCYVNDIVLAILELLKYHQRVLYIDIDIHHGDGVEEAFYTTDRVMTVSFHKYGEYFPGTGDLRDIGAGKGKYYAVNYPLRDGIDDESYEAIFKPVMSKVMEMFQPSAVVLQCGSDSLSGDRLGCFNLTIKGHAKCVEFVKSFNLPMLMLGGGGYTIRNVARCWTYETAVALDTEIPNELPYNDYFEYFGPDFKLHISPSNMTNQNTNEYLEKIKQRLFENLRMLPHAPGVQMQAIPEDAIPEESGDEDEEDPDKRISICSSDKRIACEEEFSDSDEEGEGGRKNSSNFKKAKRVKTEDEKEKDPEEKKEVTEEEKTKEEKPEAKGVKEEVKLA
Description: (§1) Inhibitory activity against histone deacetylases (HDAC1) prepared from mouse melanoma B16/BL6 cells

Histone deacetylase 8 = target: T2, Histone deacetylase 8 (Mus musculus, UniProt Q8VH37); test: Inhibitory activity against histone deacetylase 8 prepared from mouse melanoma B16/BL6 cells; assay type: cell-based
T2 sequence (Q8VH37 whole entry): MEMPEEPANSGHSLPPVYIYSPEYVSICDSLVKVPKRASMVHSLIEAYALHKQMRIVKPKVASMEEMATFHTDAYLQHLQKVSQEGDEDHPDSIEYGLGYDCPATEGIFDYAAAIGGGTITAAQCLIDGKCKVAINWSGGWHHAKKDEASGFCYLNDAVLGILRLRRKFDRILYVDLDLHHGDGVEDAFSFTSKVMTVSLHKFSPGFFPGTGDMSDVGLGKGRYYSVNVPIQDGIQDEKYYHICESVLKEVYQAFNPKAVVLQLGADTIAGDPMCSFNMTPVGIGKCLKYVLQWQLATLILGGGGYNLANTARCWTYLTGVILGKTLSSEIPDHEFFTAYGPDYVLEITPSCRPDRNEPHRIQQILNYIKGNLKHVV

[2] = target: T3, Protein deacetylase HDAC6 (Mus musculus, UniProt Q9Z2V5); test: Inhibitory activity against histone deacetylase 6 prepared from mouse melanoma B16/BL6 cells; assay type: cell-based
T3 sequence (Q9Z2V5 whole entry): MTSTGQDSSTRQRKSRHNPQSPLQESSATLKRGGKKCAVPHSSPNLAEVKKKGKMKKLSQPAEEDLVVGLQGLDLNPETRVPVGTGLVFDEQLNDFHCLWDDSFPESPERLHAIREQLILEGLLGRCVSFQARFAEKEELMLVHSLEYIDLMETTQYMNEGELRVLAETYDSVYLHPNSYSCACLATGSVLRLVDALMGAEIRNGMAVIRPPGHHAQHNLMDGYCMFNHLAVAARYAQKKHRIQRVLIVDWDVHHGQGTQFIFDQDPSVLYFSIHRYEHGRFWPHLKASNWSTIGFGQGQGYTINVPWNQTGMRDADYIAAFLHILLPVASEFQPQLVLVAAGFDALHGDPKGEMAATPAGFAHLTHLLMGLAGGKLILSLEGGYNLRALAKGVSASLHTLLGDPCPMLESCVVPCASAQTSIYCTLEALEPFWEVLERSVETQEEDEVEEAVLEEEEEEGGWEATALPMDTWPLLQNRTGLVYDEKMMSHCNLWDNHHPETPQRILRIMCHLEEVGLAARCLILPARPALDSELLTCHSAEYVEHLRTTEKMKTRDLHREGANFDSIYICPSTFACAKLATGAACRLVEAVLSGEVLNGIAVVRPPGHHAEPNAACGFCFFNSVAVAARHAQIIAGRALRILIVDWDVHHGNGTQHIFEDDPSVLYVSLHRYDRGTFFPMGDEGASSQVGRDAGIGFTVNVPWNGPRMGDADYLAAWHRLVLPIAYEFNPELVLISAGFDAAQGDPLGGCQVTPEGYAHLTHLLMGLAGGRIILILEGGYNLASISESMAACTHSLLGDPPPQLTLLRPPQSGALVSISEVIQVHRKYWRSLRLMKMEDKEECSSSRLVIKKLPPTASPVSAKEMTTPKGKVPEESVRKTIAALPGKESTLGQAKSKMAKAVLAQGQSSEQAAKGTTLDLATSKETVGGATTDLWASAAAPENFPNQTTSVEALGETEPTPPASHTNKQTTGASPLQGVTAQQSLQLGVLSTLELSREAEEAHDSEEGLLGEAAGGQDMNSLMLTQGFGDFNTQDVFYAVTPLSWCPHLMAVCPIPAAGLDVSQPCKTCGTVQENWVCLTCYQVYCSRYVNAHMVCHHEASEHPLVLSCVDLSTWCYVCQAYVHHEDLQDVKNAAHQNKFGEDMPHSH

Histone deacetylase 1 [3] = target: T1, Histone deacetylase 1; details: b16/bl6
Description: as §1

Question: For `CC[C@@H](C)[C@@H]1NC(=O)[C@@H](Cc2ccc(OC)cc2)NC(=O)[C@H](CCCCN(O)C(C)=O)NC(=O)[C@@H]2CCCCN2C1=O`, which IC50 (Histone deacetylase) is on record?
Answer: 88500 nM

Question: For `CC[C@@H](C)[C@@H]1NC(=O)[C@@H](Cc2ccc(OC)cc2)NC(=O)[C@H](CCCCN(O)C(C)=O)NC(=O)[C@H]2CCCCN2C1=O`, which IC50 (Histone deacetylase) is on record?
Answer: 88400 nM

Question: For `CC[C@@H](C)[C@@H]1NC(=O)[C@@H](Cc2ccc(OC)cc2)NC(=O)[C@H](CCCCCC(=O)NO)NC(=O)[C@H]2CCCN2C1=O` (cyclo([Asu](NHOH)[dY](Me)[aIle][dP])), which EC1000 (Mus musculus) is on record?
Answer: 0.022 µM

Question: With `CC[C@@H](C)[C@@H]1NC(=O)[C@@H](Cc2ccc(OC)cc2)NC(=O)[C@H](CCCCN(O)C=O)NC(=O)[C@@H]2CCCCN2C1=O` as the molecule, how does the IC50 (Histone deacetylase) read?
Answer: 1392 nM

Question: For `CC[C@@H](C)[C@@H]1NC(=O)[C@@H](Cc2ccc(OC)cc2)NC(=O)[C@H](CCCCCN(O)C=O)NC(=O)[C@H]2CCCN2C1=O`, which IC50 (Histone deacetylase 1 [1]) is on record?
Answer: 67 nM

Question: What about the EC1000 (Mus musculus) of the same molecule?
Answer: 0.61 µM

Question: What about the IC50 (Histone deacetylase 8) of the same molecule?
Answer: 59 nM

Question: What about the IC50 [2] of the same molecule?
Answer: 178 nM

Question: With `CC[C@@H](C)[C@@H]1NC(=O)[C@@H](Cc2ccc(OC)cc2)NC(=O)[C@H](CCCCCCN(O)C=O)NC(=O)[C@@H]2CCCCN2C1=O` as the molecule, how does the IC50 (Histone deacetylase) read?
Answer: 1350 nM

Question: With `CC[C@@H](C)[C@@H]1NC(=O)[C@@H](Cc2ccc(OC)cc2)NC(=O)[C@H](CCCCCN(O)C=O)NC(=O)[C@@H]2CCCCN2C1=O` as the molecule, how does the IC50 (Histone deacetylase) read?
Answer: 141 nM

Question: Which results are given for `CC[C@@H](C)[C@@H]1NC(=O)[C@@H](Cc2ccc(OC)cc2)NC(=O)[C@H](CCCCCN(O)C=O)NC(=O)[C@@H]2CCCN2C1=O`?
Answer: IC50 (Histone deacetylase 1 [3]): 33 nM; IC50 (Histone deacetylase 8; b16/bl6): 34 nM; IC50 ([2]; b16/bl6): 29 nM

Question: `CC[C@@H](C)[C@@H]1NC(=O)[C@@H](Cc2ccc(OC)cc2)NC(=O)[C@H](CCCCCN(O)C(C)=O)NC(=O)[C@@H]2CCCCN2C1=O` was tested. Which IC50 (Histone deacetylase) did it give?
Answer: 58000 nM

Question: `CC[C@@H](C)[C@@H]1NC(=O)[C@@H](Cc2ccc(OC)cc2)NC(=O)[C@H](CCCCCCN(O)C=O)NC(=O)[C@H]2CCCCN2C1=O` was tested. Which IC50 (Histone deacetylase) did it give?
Answer: 893 nM

Question: With `CC[C@@H](C)[C@@H]1NC(=O)[C@@H](Cc2ccc(OC)cc2)NC(=O)[C@H](CCCCN(O)C=O)NC(=O)[C@H]2CCCCN2C1=O` as the molecule, how does the IC50 (Histone deacetylase) read?
Answer: 957 nM

Question: For `CC[C@@H](C)[C@@H]1NC(=O)[C@@H](Cc2ccc(OC)cc2)NC(=O)[C@H](CCCCCCC(=O)NO)NC(=O)[C@@H]2CCCCN2C1=O`, which IC50 (Histone deacetylase) is on record?
Answer: 3.96 nM

Question: For `CC[C@@H](C)[C@@H]1NC(=O)[C@@H](Cc2ccc(OC)cc2)NC(=O)[C@H](CCCCCN(O)C=O)NC(=O)[C@H]2CCCCN2C1=O`, which IC50 (Histone deacetylase 1 [1]) is on record?
Answer: 26 nM

Question: What about the IC50 (Histone deacetylase 8) of the same molecule?
Answer: 46 nM

Question: What about the IC50 (Histone deacetylase) of the same molecule?
Answer: 84 nM

Question: And the IC50 [2]?
Answer: 782 nM

Question: With `CC(/C=C/C(=O)NO)=C\[C@@H](C)C(=O)c1ccc(N(C)C)cc1` [TRICHOSTATIN] as the molecule, how does the EC1000 (Mus musculus) read?
Answer: 0.19 µM

Question: For `CC[C@@H](C)[C@@H]1NC(=O)[C@@H](Cc2ccc(OC)cc2)NC(=O)[C@H](CCCCCN(O)C(C)=O)NC(=O)[C@H]2CCCCN2C1=O`, which IC50 (Histone deacetylase) is on record?
Answer: 43800 nM

Question: Which IC50 (Histone deacetylase 1 [1]) does the source give for `CC[C@H](C)[C@@H]1NC(=O)[C@@H](Cc2ccc(OC)cc2)NC(=O)[C@H](CCCCCC(=O)NO)NC(=O)[C@H]2CCCN2C1=O` (cyclo([Asu](NHOH)[dY](Me)I[dP])) here?
Answer: 0.4 nM
